The text below walks through data of publication PMC6858345, “Structural insights into heme binding to IL-36α proinflammatory cytokine” (Scientific Reports, 2019).

Test [1] deals with synovial fibroblast-like synoviocytes (FLS) from RA patients. As to the kind of experiment: IL-6/IL-8 mRNA expression (qRT-PCR) in stimulated FLS. The format is cell-based, human. To be noted: 24 h; for IL-6 and IL-8 expression (mRNA) in FLS: IL-36α 5.8 nM, heme 0.15 and 1.5 µM (ratios 26:1 and 260:1). Here is the method:
Human fibroblast-like synoviocytes (FLS) were isolated from knee joints of rheumatoid arthritis patients obtained at the University Hospital Erlangen-Nuremberg[69]. All patients gave written informed consent, and their use for research was approved by the ethics committee of the University hospital Erlangen (ethic licenses 4013 and 4065). We confirm that all methods were performed in accordance with the relevant guidelines and regulations. Human RA FLS kept at 37 °C and 5% CO2 in a humidified incubator upon isolation. They were cultured in RPMI and DMEM at a ratio of 1:5, supplemented with 50 U/mL penicillin, 50 μg/mL streptomycin, 0.2% amphotericin and 2% fetal bovine serum. Cells between passages 3 to 8 were used. For stimulation experiments, human FLS from RA patients were seeded at a concentration of 100,000 cells/mL in 500 μL culture medium in a 48-well plate one day prior to the experiment. […] Cells were then incubated for either 5 min (western blot analysis of phosphorylation) or 24 h (qPCR and ELISA). Sample separation was performed by a reducing […] (10% SDS polyacrylamide gel) and blotted to a nitrocellulose membrane by semi-dry transfer. […] Cell viability was analyzed using the AlamarBlue assay according to the manufacturer's instruction (#741802, Invitrogen, Carlsbad, CA, USA), and absorbance was measured at 570 nm and 600 nm. For performing quantitative real-time PCR (qRT-PCR), RNA was isolated from FLS with […], Germany), followed by first-strand cDNA synthesis using the MultiScribeTM MuLV reverse transcriptase (Applied Biosystems, Foster City, CA, USA), both according to manufacturer's instruction. Relative gene expression was assessed by qRT-PCR using the Applied Biosystems 7500 fast-real-time-PCR System (Applied Biosystems) with SYBR® Select Master Mix (ThermoFisher Scientific) as detection method, according to the manufacturer's manual. Samples and the housekeeping gene GAPDH as endogenous control were analyzed in duplicates. […]

The test system is the same in test [2]. As to the kind of experiment: p38 activation in FLS (western blot of P-p38). It counts as cell-based, human. To be noted: 5 min stimulation. On the procedure:
Human fibroblast-like synoviocytes (FLS) were isolated from knee joints of rheumatoid arthritis patients obtained at the University Hospital Erlangen-Nuremberg[69]. All patients gave written informed consent, and their use for research was approved by the ethics committee of the University hospital Erlangen (ethic licenses 4013 and 4065). We confirm that all methods were performed in accordance with the relevant guidelines and regulations. Human RA FLS kept at 37 °C and 5% CO2 in a humidified incubator upon isolation. They were cultured in RPMI and DMEM at a ratio of 1:5, supplemented with 50 U/mL penicillin, 50 μg/mL streptomycin, 0.2% amphotericin and 2% fetal bovine serum. Cells between passages 3 to 8 were used.
For stimulation experiments, human FLS from RA patients were seeded at a concentration of 100,000 cells/mL in 500 µL culture medium in a 48-well plate one day prior to the experiment. Before stimulation of FLS, heme was pre-incubated with trIL-36α or trIL-36α protein mutants with substituted amino acids in the proposed heme-binding site in medium for 1 h at room temperature in the dark. […] Cell viability was analyzed using the AlamarBlue assay according to the manufacturer’s instruction (#741802, Invitrogen, Carlsbad, CA, USA), and absorbance was measured at 570 nm and 600 nm.
For orientation: Immunoblotting shows a protein as a band on a membrane.

The target of test [3] is T1, IL-36α (Homo sapiens, UniProt Q9UHA7).
T1 construct: three additional amino acids (Gly-Ser-His) attached at the N-terminus of full-length IL-36α (161 amino acids); His6 tag with thrombin cleavage site (N, cleaved yes); made in house; host or cells: Escherichia coli BL21(DE3), pET-28a
T1 sequence (Q9UHA7 6-158): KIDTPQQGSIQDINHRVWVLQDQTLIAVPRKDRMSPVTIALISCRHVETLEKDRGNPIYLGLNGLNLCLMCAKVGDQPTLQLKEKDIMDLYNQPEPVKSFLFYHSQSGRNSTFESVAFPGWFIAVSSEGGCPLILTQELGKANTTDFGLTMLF
As to the kind of experiment: UV/Vis differential spectroscopy, protoporphyrin IX applied to IL-36α. It counts as binding. Here is the method:
(§1) A Multiskan GO microplate spectrophotometer (ThermoFisher Scientific, Dreieich, Germany) was used for UV/Vis measurements. Heme and peptide solutions were prepared in 100 mM Hepes buffer (pH 7.0). IL-36 cytokines (~5 µM), dissolved in 20 mM sodium phosphate buffer (pH 6.9), were incubated with heme (0.2 to 40 µM) in the dark at room temperature for 60 minutes before UV/Vis spectra were measured at 300 to 600 nm. Protein concentrations were corrected using the calculated molar absorption coefficient at 280 nm. Peptides 1–7 (20 µM) were incubated with heme for 30 minutes in the dark at room temperature.

Test [4] in a line: UV/Vis differential spectroscopy of heme-incubated proteins and peptides. It counts as binding. To be noted: peptide 20 µM, 30 min, 100 mM Hepes pH 7.0; read-out: KD for UV/Vis, IL-36α-derived peptides. On the procedure: as §1
Test [5] in a line: Peroxidase-like activity of heme complexes. It counts as biochemical. To be noted: protein:heme 1:1 and 1:2. The text has this:
A peroxidase-like activity of heme-peptide/protein complexes has been discussed to be critical due to cytotoxic ROS formation[4],[43]–[45]. We thus tested the peroxidase-like activity of IL-36α-heme-complexes in two different ratios (1:1 and 1:2, protein:heme) as well as of both heme-binding motifs (CP, YH) on the peptide level (Supplementary Fig. S5E).

Test [6] in a line: Surface plasmon resonance (SPR) of heme binding to immobilized proteins, single-cycle kinetics. On the procedure:
SPR measurements were performed on a Biacore T200 instrument (GE Healthcare Europe GmbH, Freiburg, Germany) at 25 °C. The running buffer was 10 mM HEPES (pH 7.4), 150 mM NaCl, 0.05% Tween 20. The proteins BSA (VWR Life Science AMRESCO, Germany), lysozyme (AppliChem GmbH, Darmstadt, Germany), IL-36α (protein expression), trIL-36α (R&D Systems, Minneapolis, MN, USA), trIL-36β (isoform 2, R&D Systems, Minneapolis, MN, USA) and trIL-36γ (R&D Systems, Minneapolis, MN, USA) were covalently immobilized by amine coupling on a CM5 sensor chip (GE Healthcare). Briefly, lysozyme was diluted to a final concentration of 2.5 µg/mL in acetate buffer (pH 7.0), and BSA was diluted to 2.5 µg/mL in acetate buffer (pH 5.0). trIL-36α, trIL-36β, and trIL-36γ were diluted to 0.85 µg/mL in acetate buffer (pH 4.0). Subsequently, the proteins were separately injected at 10 µL/min on an EDC/NHS activated flow cell until immobilization levels of 1600 RU (lysozyme), 1050 RU (trIL-36α), 2900 RU (BSA), 937 RU (trIL-36β), and 320 RU (trIL-36γ) were achieved. An activated/deactivated flow cell was used for reference subtraction. […]

Test [7] in a line: Fluorescence quenching of heme-incubated proteins. The format is binding. To be noted: λex 306 nm, λem 352 nm; protein 1 µM, heme 0.1-16 µM. On the procedure: All measurements were performed on a fluorescence spectrophotometer FP-8300 (Jasco, Tokyo, Japan). BSA (1 µM) and lysozyme (1 µM) were dissolved in PBS buffer (pH 7.4) and IL-36α variants (1 µM) in 20 mM sodium phosphate buffer (pH 6.9), were each dissolved in and incubated for 60 minutes with varying heme concentrations (0.1–16 µM) in the dark. Parameters were set to excitation at 306 nm, emission at 352 nm, bandwidth 10 nm (extinction) and 20 nm (emission)[30].

On the set-up of test [8]: method as in PMID 23730736. To be noted: UV shift to ~366 nm; read-out: Heme binding affinity of the 9mer CP-motif (UV/Vis); cited from earlier work.

Residue numbers refer to the chain shown, from its start. Numbers in names are those of the source. Where two headings read alike, the source gives them in different places.

Consider `C=CC1=C(C)C2=Cc3c(C=C)c(C)c4[n]3[Fe+][n]3c(c(C)c(CCC(=O)O)c3=CC3=NC(=C4)C(C)=C3CCC(=O)O)=CC1=N2` [heme], for which the “IL-6 and IL-8 expression (mRNA) in FLS” value in test [1] is “did not have an effect”. Further, the “Activation of p38 in IL-36α-mediated signaling” value in test [2] is recorded as “decreased activation of p38”.
In the case of `C=CC1=C(C)c2cc3[nH]c(cc4nc(cc5[nH]c(cc1n2)c(C)c5CCC(=O)O)C(CCC(=O)O)=C4C)c(C)c3C=C` [protoporphyrin IX (PPIX), protoporphyrin IX], the “Effect on UV/Vis differential spectrum of IL-36α” value in test [3] is on record as “No effect”.
For “FLFY108H109SQSG (FLFYHSQSG; UniProt Q9UHA7 105-113, looked up, fragment) [Peptide 1, IL-36α-derived 9mer wild-type YH motif peptide]”, the Kd in test [4] came out at 4.48 ± 2.2 µM. Moreover, the “Peroxidase-like activity relative to heme (100%)” value in test [5] is on record as “No significant increase”.
Consider “Lysozyme: negative control (non-binder) for heme binding [reference compound]”, for which the “Heme binding by SPR (in words)” value in test [6] is listed as “non-binder”. Moreover, the “Heme binding by fluorescence quenching (in words)” value in test [7] was “non-binder”.
For the molecule “SEGGC136P137LIL (SEGGCPLIL; UniProt Q9UHA7 132-140, looked up, fragment) [9mer CP-motif]”, the Kd in test [8] is 3.75 ± 0.77 µM.

B1: IL-36α: full-length interleukin-36α, recombinantly expressed in E. coli (protein, UniProt Q9UHA7 1-158, looked up)
chain: MEKALKIDTPQQGSIQDINHRVWVLQDQTLIAVPRKDRMSPVTIALISCRHVETLEKDRGNPIYLGLNGLNLCLMCAKVGDQPTLQLKEKDIMDLYNQPEPVKSFLFYHSQSGRNSTFESVAFPGWFIAVSSEGGCPLILTQELGKANTTDFGLTMLF
modifications: full-length
notes: full-length interleukin-36α, recombinantly expressed in E. coli
With B1, in test [7], the “Heme binding by fluorescence quenching (in words)” value is reported as “confirmed”. In addition, in test [1], the “IL-6 and IL-8 expression (mRNA) in FLS” value is “induced IL-6 and IL-8 expression”. Further, the “Peroxidase-like activity relative to heme (100%)” value in test [5] was “No significant increase”.

B2: C136SP137A: IL-36α protein mutant C136S P137A (protein, UniProt Q9UHA7 6-158, looked up, variant C136S P137A)
Interleukin-36 alpha: T1 sequence (Q9UHA7 6-158) with C131S, P132A
For the molecule B2, in test [1] (5.8 nM protein, compared to IL-36α), the “IL-6 expression / biological activity of IL-36α mutants in FLS” value is given as “showed biological activity, even if reduced with respect to wild-type IL-36α”.
